Data published in patent US9120749B2, “Quinoline derivatives and MELK inhibitors containing the same” (ONCOTHERAPY SCIENCE, INC., priority 2010, dated 2015).
Read-outs that look alike come from different tables or passages of the source.

Columns and labels:
[1] = system: A549 cells; test: Cell-based assay: anti-proliferative activity, Cell Counting Kit-8, 72 hours (A549); conditions: Homo sapiens, A549, 72 h, 72 hours
Description: (§1) 100 micro-L of cell suspension was seeded onto 96-well microtiter plate (ViewPlate-96FTC, PerkinElmer). The initial cell concentration of T47D, A549, BT-549, and HT-1197 were 3,000 cells/well, 2,000 cells/well and 2,500 cells/well, respectively. Cellular growth was determined using Cell Counting Kit-8 (DOJINDO) at 72 hours after the exposure of the candidate inhibitors. […] Accurate IC50 values were calculated as described previously.

[2] = system: HT-1197 cells; test: Cell-based assay: anti-proliferative activity, Cell Counting Kit-8, 72 hours (HT-1197, negative control without MELK expression); conditions: Homo sapiens, HT1197, 72 h, HT1197 cells (negative control, no MELK expression), 72 hours
Description: (§2) To evaluate the expression status of MELK in several cell lines, western blot analysis was performed using crude cell lysate collected from those cells. Anti-MELK antibody (clone 31, BD Biosciences) was used to visualize the expression.
as §1, with “Active candidate inhibitors against MELK were evaluated for their target-specific cytotoxicity using T47D, A549, BT-549, and HT-1197 cells was used for negative control. 100” for “100”

[3] = biological target: MELK (Homo sapiens, UniProt Q14680); test: Kinase assay: MELK activity, phosphorylation of FITC-labeled histone H3 peptide measured by IMAP fluorescence polarization; assay type: biochemical
Chain of MELK (Q14680 whole entry, looked up): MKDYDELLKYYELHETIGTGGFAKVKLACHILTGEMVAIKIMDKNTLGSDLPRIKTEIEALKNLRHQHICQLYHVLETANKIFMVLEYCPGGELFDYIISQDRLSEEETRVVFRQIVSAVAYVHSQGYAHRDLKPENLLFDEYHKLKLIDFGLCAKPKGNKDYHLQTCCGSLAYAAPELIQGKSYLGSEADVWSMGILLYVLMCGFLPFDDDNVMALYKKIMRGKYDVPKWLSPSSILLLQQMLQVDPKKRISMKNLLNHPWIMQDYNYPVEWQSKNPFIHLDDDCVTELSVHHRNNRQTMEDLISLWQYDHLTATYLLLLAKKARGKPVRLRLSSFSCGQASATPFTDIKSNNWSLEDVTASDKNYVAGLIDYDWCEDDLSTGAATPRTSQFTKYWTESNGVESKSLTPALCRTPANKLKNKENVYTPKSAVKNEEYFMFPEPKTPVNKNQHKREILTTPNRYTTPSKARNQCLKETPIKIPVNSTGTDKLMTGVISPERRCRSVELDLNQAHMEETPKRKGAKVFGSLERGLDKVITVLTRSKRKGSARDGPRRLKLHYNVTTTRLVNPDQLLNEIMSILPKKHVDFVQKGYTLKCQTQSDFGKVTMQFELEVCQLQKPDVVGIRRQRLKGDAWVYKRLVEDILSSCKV
Description: MELK activity was determined in the presence or absence of compounds using fluorescein isothiocyanate-labeled (FITC-labeled) histone H3 peptide as a substrate. […] Test compounds were dissolved in DMSO at 12.5 mM and then serially diluted as the DMSO concentration in the assays to be 1%. […] The reaction was stopped by the addition of three fold assay volume of progressive binding solution. Following 0.5 hour incubation at room temperature, fluorescence polarization was measured by Wallac EnVision 2103 multilabel reader (PerkinElmer).

[4] = system: T47D cells; test: Cell-based assay: anti-proliferative activity, Cell Counting Kit-8, 72 hours (T47D); conditions: Homo sapiens, T47D, 72 h
Description: as §2
as §1, with “Active candidate inhibitors against MELK were evaluated for their target-specific cytotoxicity using T47D, A549, BT-549, and HT-1197 cells was used for negative control. 100” for “100”

[5] = 50 micro-M ATP, FITC-labeled histone H3 peptide substrate, IMAP fluorescence polarization, read-out: IC50 (μM) (kinase assay)

| Structure (SMILES) | IC50 [1] | IC50 [2] | IC50 [3, 5] | IC50 [4] | IC50 [3] |
| --- | --- | --- | --- | --- | --- |
| CN1CCN(c2ccc(-c3c(C(=O)C4CC4)cnc4ccc(-c5cc(Cl)c(O)c(Cl)c5)cc34)cc2)CC1 [Example 430, cyclopropyl(6-(3,5-dichloro-4-hydroxyphenyl)-4-(4-(4-methylpiperazin-1-yl)phenyl)quinolin-3-yl)methanone] | 2.7 µM | 9.2 µM | 0.033 µM | 1.3 µM | – |
| CN(C)Cc1ccc(Nc2c(C(=O)C3CC3)cnc3ccc(-c4cc(Cl)c(O)c(Cl)c4)cc23)nc1 [Example 417, cyclopropyl(6-(3,5-dichloro-4-hydroxyphenyl)-4-(5-((dimethylamino)methyl)pyridin-2-ylamino)quinolin-3-yl)methanone] | 1.8 µM | 22 µM | 0.0099 µM | 1.7 µM | – |
| CN(C)Cc1ccc(Nc2c(C#N)cnc3ccc(-c4cc(F)c(O)c(Cl)c4)cc23)cc1 [Example 432, 6-(3-chloro-5-fluoro-4-hydroxyphenyl)-4-(4-((dimethylamino)methyl)phenylamino)quinoline-3-carbonitrile] | 1.1 µM | 4.9 µM | 0.056 µM | 0.98 µM | – |
| CN(C)CC1CCN(c2c(C(=O)C3CCCC3)cnc3ccc(-c4ccc(O)c(Cl)c4)cc23)CC1 [Example 389, (6-(3-chloro-4-hydroxyphenyl)-4-(4-((dimethylamino)methyl)piperidin-1-yl)quinolin-3-yl)(cyclopentyl)methanone] | 1.7 µM | 6.9 µM | 0.031 µM | 2.9 µM | – |
| COc1cc(-c2ccc3ncc(S(C)(=O)=O)c(N4CCC(CN5CCCC5)CC4)c3c2)cc(Cl)c1O [Example 412, 2-chloro-6-methoxy-4-(3-(methylsulfonyl)-4-(4-(pyrrolidin-1-ylmethyl)piperidin-1-yl)quinolin-6-yl)phenol] | 0.58 µM | 2.5 µM | 0.002 µM | 1.4 µM | – |
| CN(C)CC1CCN(c2c(C(=O)C3CCCC3)cnc3ccc(-c4cc(F)c(O)c(Cl)c4)cc23)CC1 [Example 384, (6-(3-chloro-5-fluoro-4-hydroxyphenyl)-4-(4-((dimethylamino)methyl)piperidin-1-yl)quinolin-3-yl)(cyclopentyl)methanone] | 1.9 µM | 4 µM | 0.0046 µM | 2 µM | – |
| CN(C)CC1CCN(c2c(C(=O)C3CC3)cnc3ccc(-c4ccc5[nH]ccc5c4)cc23)CC1 [Example 453] | 0.48 µM | 2.3 µM | 0.094 µM | 1.2 µM | – |
| COc1cc(-c2ccc3ncc(C(C)=O)c(Nc4ccc(CN(C)C)cc4)c3c2)cc(Cl)c1O [Example 391, 1-(6-(3-chloro-4-hydroxy-5-methoxyphenyl)-4-(4-((dimethylamino)methyl)phenylamino)quinolin-3-yl)ethanone] | 1 µM | 4.2 µM | 0.0037 µM | 0.12 µM | – |
| CN(C)CCNC(=O)c1ccc(-c2c(C(=O)C3CC3)cnc3ccc(-c4cc(Cl)c(O)c(Cl)c4)cc23)cc1 [Example 451] | 3.8 µM | 17 µM | 0.0025 µM | 0.68 µM | – |
| COc1cc(-c2ccc3ncc(C(=O)C4CC4)c(Nc4ccc(CN5CCN(C)CC5)cc4)c3c2)ccc1O [Example 405, cyclopropyl(6-(4-hydroxy-3-methoxyphenyl)-4-(4-((4-methylpiperazin-1-yl)methyl)phenylamino)quinolin-3-yl)methanone] | 0.8 µM | 3.5 µM | 0.017 µM | 0.76 µM | – |
| O=C(c1cnc2ccc(-c3cc(Cl)c(O)c(Cl)c3)cc2c1-c1ccc(N2CCNCC2)nc1)C1CC1 [Example 459] | 1.9 µM | 10 µM | 0.0091 µM | 0.83 µM | – |
| O=C(c1cnc2ccc(-c3ccc(O)c(Cl)c3)cc2c1N1CCN(CCN2CCCC2)CC1)C1CC1 [Example 403, (6-(3-chloro-4-hydroxyphenyl)-4-(4-(2-(pyrrolidin-1-yl)ethyl)piperazin-1-yl)quinolin-3-yl)(cyclopropyl)methanone] | 1.3 µM | 10 µM | 0.011 µM | 4.5 µM | – |
| CN(C)C[C@H]1CC[C@H](Nc2c(C(=O)C3CC3)cnc3ccc(-c4cnc(C#N)nc4)cc23)CC1 [Example 426] | 1.5 µM | 3.7 µM | 0.0025 µM | 0.43 µM | – |
| CN1CCCC1c1ccc(Nc2c(C(=O)C3CC3)cnc3ccc(-c4cc(Cl)c(O)c(Cl)c4)cc23)nc1 (stereo not drawn) [Example 445] | 4.1 µM | 10 µM | 0.022 µM | 7.5 µM | – |
| CN(C)C[C@H]1CC[C@H](Nc2c(S(C)(=O)=O)cnc3ccc(-c4ccc(O)c(Cl)c4)cc23)CC1 [Example 424] | 0.79 µM | 1.1 µM | 0.013 µM | 0.43 µM | – |
| CN(C)Cc1ccc(Nc2c(S(C)(=O)=O)cnc3ccc(-c4ccc(O)c(Cl)c4)cc23)cc1 [Example 411, 2-chloro-4-(4-(4-((dimethylamino)methyl)phenylamino)-3-(methylsulfonyl)quinolin-6-yl)phenol] | 0.37 µM | 0.63 µM | 0.0091 µM | 0.29 µM | – |
| CN1CCCC1c1ccc(Nc2c(C(=O)C3CC3)cnc3ccc(-c4cc(F)c(O)c(Cl)c4)cc23)nc1 (stereo not drawn) [Example 443] | 6.6 µM | 10 µM | 0.043 µM | 7.1 µM | – |
| CS(=O)(=O)c1cnc2ccc(-c3cc(F)c(O)c(Cl)c3)cc2c1N1CCC(CN2CCCC2)CC1 [Example 407, 2-chloro-6-fluoro-4-(3-(methylsulfonyl)-4-(4-(pyrrolidin-1-ylmethyl)piperidin-1-yl)quinolin-6-yl)phenol] | 3.8 µM | 6.5 µM | 0.0051 µM | 0.75 µM | – |
| CN1CCN(C(=O)CNc2c(C(=O)C3CC3)cnc3ccc(-c4cc(F)c(O)c(Cl)c4)cc23)CC1 [Example 390, 2-(6-(3-chloro-5-fluoro-4-hydroxyphenyl)-3-(cyclopropanecarbonyl)quinolin-4-ylamino)-1-(4-methylpiperazin-1-yl)ethanone] | 2.7 µM | 10 µM | 0.025 µM | 2 µM | – |
| O=C(c1cnc2ccc(-c3cc(F)c(O)c(Cl)c3)cc2c1N1CCN(CCN2CCCC2)C(=O)C1)C1CC1 [Example 440, 4-(6-(3-chloro-5-fluoro-4-hydroxyphenyl)-3-(cyclopropanecarbonyl)quinolin-4-yl)-1-(2-(pyrrolidin-1-yl)ethyl)piperazin-2-one] | 5.1 µM | 10 µM | 0.0044 µM | 1.1 µM | – |
| COc1cc(-c2ccc3ncc(C(=O)C4CC4)c(-c4ccc(CN5CCCC5)cc4)c3c2)cc(Cl)c1O [Example 436, (6-(3-chloro-4-hydroxy-5-methoxyphenyl)-4-(4-(pyrrolidin-1-ylmethyl)phenyl)quinolin-3-yl)(cyclopropyl)methanone] | 0.63 µM | 4.9 µM | 0.014 µM | 0.63 µM | – |
| COc1cc(-c2ccc3ncc(C#N)c(N4CCC(CN5CCCC5)CC4)c3c2)cc(Cl)c1O [Example 428, 6-(3-chloro-4-hydroxy-5-methoxyphenyl)-4-(4-(pyrrolidin-1-ylmethyl)piperidin-1-yl)quinoline-3-carbonitrile] | 2.6 µM | 13 µM | 0.0037 µM | 7.6 µM | – |
| O=C(c1cnc2ccc(-c3cc(Cl)c(O)c(Cl)c3)cc2c1-c1ccc(CN2CCCC2)cc1)C1CC1 [Example 452] | 1.6 µM | 10 µM | 0.0026 µM | 0.55 µM | – |
| CN(C)[C@H]1CC[C@H](Nc2c(C#N)cnc3ccc(-c4cc(F)c(O)c(Cl)c4)cc23)CC1 [Example 446] | 8.4 µM | 10 µM | 0.0027 µM | 0.61 µM | – |
| CN(C)Cc1ccc(Nc2c(C(=O)C3CCCC3)cnc3ccc(-c4ccc(O)c(Cl)c4)cc23)cc1 [Example 387, (6-(3-chloro-4-hydroxyphenyl)-4-(4-((dimethylamino)methyl)phenylamino)quinolin-3-yl)(cyclopentyl)methanone] | 1 µM | 1.9 µM | 0.089 µM | 1.6 µM | – |
| COc1cc(-c2ccc3ncc(C(=O)C4CC4)c(N4C[C@@H]5C[C@H]4CN5C(=O)CN(C)C)c3c2)cc(Cl)c1O [Example 456] | 4.2 µM | 29 µM | – | 3.8 µM | 0.0078 µM |
| N#Cc1cnc2ccc(-c3cc(F)c(O)c(Cl)c3)cc2c1N1CCC(CN2CCCC2)CC1 [Example 434, 6-(3-chloro-5-fluoro-4-hydroxyphenyl)-4-(4-(pyrrolidin-1-ylmethyl)piperidin-1-yl)quinoline-3-carbonitrile] | 1.1 µM | 10 µM | 0.035 µM | 0.45 µM | – |
